# Results reported in patent US11370779B2, “Pharmaceutical composition for preventing or treating acute myeloid leukemia or metastatic breast cancer” (PELEMED CO., LTD., priority 2017, dated 2022).
# Structures can show the parent of a compound that is named as a salt. Where two headings read alike, the source gives them in different places.
# Experiments:
# [1] = target: FLT3 kinase (Homo sapiens (Human), UniProt P36888); assay: In vitro FLT3 kinase HTRF assay (Example 2); format: biochemical; settings: HTRF
# Method: Inhibition of the FLT3 kinase activity was measured using homogeneous, time-resolved fluorescence (HTRF) assays. Recombinant proteins containing the FLT3 kinase domain were purchased from Carna biosciences (Japan). Optimal enzyme, ATP, and substrate concentrations were established using the HTRF KinEASE kit (Cisbio, France) according to the manufacturer's instructions. The FLT3 enzymes were mixed in sequence with diluted compounds and peptide substrates in a kinase reaction buffer (50 mM HEPES (pH 7.0), 500 μM ATP, 0.1 mM sodium orthovanadate, 5 mM MgCl2, 1 mM DTT, 0.01% bovine serum albumin (BSA), and 0.02% NaN3). After the addition of the reagents for detection, the TR-FRET signal was measured using a Victor multilabel reader (Perkin Elmer, Waltham, Mass., USA). […] JAK2, JAK3, cMET, and RET in vitro kinase assays were also performed using the HTRF assay.
# [2] = system: MV4;11 cells; assay: Cell viability, EZ-Cytox tetrazolium assay, MV4;11; format: cell-based, human; settings: 72 hours; for GI50: read-out: GI50(nM) MV4;11
# Method: The cultured cells were incubated at 3° C. with 5% CO2.
# (§1) Cell viability was assessed by a tetrazolium-based assay using the EZ-Cytox Cell Viability Assay kit (DaeilLab, Korea). Briefly, 2,000 to 15,000 cells were plated in 96-well plates in 100 μl of medium. The next day, the cells were treated with compounds together with dimethyl sulfoxide (DMSO) as a negative control. Three days (72 hours) after the drug addition, 15 μl of the EZ-Cytox kit reagent was added to each well of the 96-well plate and then incubated at 37° C. in a humidified CO2 incubator for 4 hours. After incubation, the optical density (OD) was measured at a wavelength of 450 nm using a Victor multilabel reader (Perkin Elmer, Waltham, Mass., USA).
# [3] = system: MDA-MB-231; assay: Cell viability, EZ-Cytox tetrazolium assay, MDA-MB-231; format: cell-based, human; settings: 72 hours
# Method: MDA-MB-231 (metastatic breast cancer, ATCC HTB-26), Jurkat (human acute T lymphocytic leukemia, ATCC TIB-152), and K-562 (human chronic myelogenous leukemia, ATCC CCL-243) cells were cultured in RPMI-1640 (Sigma Co.). MCF7 (human breast adenocarcinoma, ATCC HTB-22) and PC-3 (human prostate adenocarcinoma, ATCC CRL-1435) cells were cultured in DMEM (Sigma Co.) medium supplemented with 10% fetal bovine serum and 1% penicillin/streptomycin. The cultured cells were incubated at 3° C. with 5% CO2.
# as §1, with “USA). The IC50 was calculated by nonlinear regression using Prism version 5.01 (GraphPad, La Jolla, Calif., USA).” for “USA).”
# [4] = system: MDA-MB-231 xenograft; assay: MDA-MB-231 mouse tumor xenograft; format: in vivo; settings: 20 mg/kg/p.o/day, 4 weeks
# Method: 6-weeks-old Balb/c nu/nu mice (female) were purchased from Central Lab. Animal Inc. to be used. […] The candidate substances LDD-2614 (Compound 21), 2633 (Compound 28), 2634 (Compound 34), 2635 (Compound 33) were administered at 20 mg/kg/p.o/day, and doxorubicin, which was a control, was administered at 5 mg/kg/i.p (once a week) for 4 weeks.
# [5] = system: MV4-11 xenograft; assay: MV4-11 mouse tumor xenograft, oral administration
# Method: The drug or the control PBS was administered daily for a duration of 21 days. Tumor sizes were measured twice a week for 21 days, and the tumor volumes were calculated with the following formula: V (volume)=X (length)×D (width)2/2. After 21 days, the mice were sacrificed, and the tumor weights were measured.
# An in vivo MV4-11 xenograft study was performed to determine the efficacy of the indirubin derivatives. MV4-11 cells were subcutaneously injected into BALB/c nu/nu mice, and tumors were allowed to grow to a size of approximately 100 mm^3.
# [6] = system: MOLM14 Wild type; assay: Cell proliferation MTT assay, MOLM14 wild type; format: cell-based; settings: Homo sapiens, MOLM-14
# Source text: (§2) MOLM14 were purchased from the ATCC and the cells were maintained in RPMI medium (Hyclone) with 10% Fetal bovine serum (Gibco) and 1% penicillin/streptomycin.
# [7] = system: MOLM14 FLT3-ITD-D835Y; assay: Cell proliferation MTT assay, MOLM14-ITD-D835Y; format: cell-based, human; settings: for GI50: Homo sapiens, MOLM-14
# Method: as §2
# Mutagenesis is performed in FLT3-ITD MSCV plasmid using Q5 site-directed mutagenesis kit (E05545). […] Retroviral particles were produced by transiently transfecting HEK293T cells with Retroviral vectors together with packaging vectors, GPE and VSVG. 48 h after transfection, media containing viral particles were collected and filtered for infection. Viral particles were infected to MOLM14 cells and 48 h after infection, infected cells were selected with puromycin (1 μg/mL).
# [8] = Table 1, recombinant FLT3 kinase domain, 500 μM ATP
# FLT3 kinase, sequence (P36888 610-943): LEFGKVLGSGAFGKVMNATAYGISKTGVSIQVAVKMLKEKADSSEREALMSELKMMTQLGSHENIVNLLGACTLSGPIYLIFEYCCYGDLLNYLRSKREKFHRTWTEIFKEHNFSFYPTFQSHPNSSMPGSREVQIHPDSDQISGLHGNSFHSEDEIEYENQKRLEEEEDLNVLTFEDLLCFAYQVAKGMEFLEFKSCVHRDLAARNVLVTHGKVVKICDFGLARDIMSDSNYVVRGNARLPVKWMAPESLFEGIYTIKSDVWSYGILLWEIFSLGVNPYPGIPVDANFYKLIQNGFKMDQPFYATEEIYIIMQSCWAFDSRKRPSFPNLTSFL
compound,measurement,setting,value
"O=C1Nc2ccc(C(=O)O)cc2/C1=C1/Nc2ccccc2/C1=N\O [Compound 7, (2Z,3E)-3-(hydroxyimino)-2′-oxo-[2,3′-biindolinylidene]-5′-carboxylic acid]",IC50,[1]; [8],8 nM
same,IC50,"[2]; Homo sapiens, MV4-11, Table 1",4020 nM
same,Ic50 (nM) MV4;11,[2]; Table 1,lacking anti-proliferative activity
"O=C1Nc2ccc(C(=O)O)cc2/C1=C1/Nc2ccccc2/C1=N\OCCBr [Compound 8, (2Z,3E)-3-((2-bromoethoxy)imino)-2′-oxo-[2,3′-biindolinylidene]-5′-carboxylic acid]",IC50,[1]; [8],13 nM
same,IC50,"[2]; Homo sapiens, MV4-11, Table 1",340 nM
"NCCO/N=C1/C(=C2/C(=O)Nc3ccc(C(=O)O)cc32)Nc2ccccc21 [Compound 9, (2Z,3E)-3-((2-aminoethoxy)imino)-2′-oxo-[2,3′-biindolinylidene]-5′-carboxylic acid hydrochloride]",IC50,[1]; [8],3 nM
same,IC50,"[2]; Homo sapiens, MV4-11, Table 1",150 nM
"O=C1Nc2ccc([N+](=O)[O-])cc2/C1=C1/Nc2ccc(O)cc2/C1=N\O [Compound 13, (2Z,3E)-5-hydroxy-3-(hydroxyimino)-5′-nitro-[2,3′-biindolinylidene]-2′-one]",IC50,[1]; Table 2,23.4 nM
same,GI50,"[2]; Homo sapiens, MV4-11",170 nM
same,GI50,"[3]; Homo sapiens, MDA-MB-231",568 nM
"Cl.Cl.O=C1Nc2ccc(F)cc2/C1=C1/Nc2ccc(F)cc2/C1=N\OCCN1CCNCC1 [Compound 21, (2Z,3E)-5,5′-difluoro-3-((2-(piperazin-1-yl)ethoxy)imino)-[2,3′-biindolinylidene]-2′-one dihydrochloride]",GI50,"[2]; Homo sapiens, MV4-11",8.9 nM
same,GI50,"[3]; Homo sapiens, MDA-MB-231",121 nM
same,weights of the liver and the kidney,[4],no significant difference
"O=C1Nc2ccc(F)cc2/C1=C1/Nc2ccc(F)cc2/C1=N\OCCN1CCOCC1 [Compound 27, (2Z,3E)-5,5′-difluoro-3-((2-morpholinoethoxy)imino)-[2,3′-biindolinylidene]-2′-one hydrochloride]",IC50,[1]; Table 2,939 nM
same,GI50,"[2]; Homo sapiens, MV4-11",116 nM
same,GI50,"[3]; Homo sapiens, MDA-MB-231",> 10 nM
"Cl.Cl.O=C1Nc2ccccc2/C1=C1/Nc2ccccc2/C1=N\OCCN1CCNCC1 [Compound 28, (2Z,3E)-3-((2-(piperazin-1-yl)ethoxy)imino)-[2,3′-biindolinylidene]-2′-one dihydrochloride]",GI50,"[2]; Homo sapiens, MV4-11",0.51 nM
same,GI50,"[3]; Homo sapiens, MDA-MB-231",276 nM
same,weights of the liver and the kidney,[4],no significant difference
same,weight loss or other signs of toxicity during the administration period,[5]; 20 mg/kg oral once daily for 21 days,no weight loss or any other signs of toxicity
same,day by which the tumor disappeared,"[5]; 20 mg/kg oral once daily, based on measured tumor volume",≤ 14 days
"CN1CCN(CCO/N=C2/C(=C3/C(=O)Nc4ccc(F)cc43)Nc3ccccc32)CC1.Cl.Cl [Compound 34, (2Z,3E)-5′-fluoro-3-((2-(4-methylpiperazin-1-yl)ethoxy)imino)-[2,3′-biindolinylidene]-2′-one dihydrochloride]",GI50,"[2]; Homo sapiens, MV4-11",11.1 nM
same,GI50,"[3]; Homo sapiens, MDA-MB-231",127 nM
same,weights of the liver and the kidney,[4],no significant difference
"CN1CCN(CCO/N=C2/C(=C3/C(=O)Nc4ccc(Br)cc43)Nc3ccccc32)CC1 [Compound 41, (2Z,3E)-5′-bromo-3-((2-(4-methylpiperazin-1-yl)ethoximino)-[2,3′-biindolinylidene]-2′-one dihydrochloride]",IC50,[1]; Table 2,4.8 nM
same,GI50,[2],25 nM
CC1(COc2ccc3c(c2)ncn3-c2ccc3cccc(N4CCC(N)CC4)c3n2)COC1 [Crenolanib],GI50,[6],4.7 nM
same,GI50,[7],15 nM
CCc1nc(C(N)=O)c(Nc2ccc(N3CCC(N4CCN(C)CC4)CC3)c(OC)c2)nc1NC1CCOCC1 [Gilteritinib],GI50,[6],8.5 nM
same,GI50,[7],43 nM
CO[C@@H]1[C@H](N(C)C(=O)c2ccccc2)C[C@H]2O[C@]1(C)n1c3ccccc3c3c4c(c5c6ccccc6n2c5c31)C(=O)NC4 [Midostaurin],GI50,[6],80 nM
same,GI50,[7],79 nM
CNC(=O)c1cc(Oc2ccc(NC(=O)Nc3ccc(Cl)c(C(F)(F)F)c3)cc2)ccn1 [Sorafenib],GI50,[6],28 nM
same,GI50 (nM) MOLM14-ITD D835Y,[7],No Activity
"(2Z,3E)-2′-oxo-3-((2-(piperazin-1-yl)ethoximino)-[2,3′-biindolinylidene]-5′-carboxylic acid dihydrochloride [Compound 10]",IC50,[1]; [8],3 nM
same,IC50,[2]; Table 1,40 nM
"(2Z,3E)-3-((2-(4-methylpiperazin-1-yl)ethoxy)imino)-5′-(trifluoromethox[2,3′-biindolinylidene]-2′-one dihydrochloride [Compound 45]",IC50,[1]; Table 2,5.6 nM
same,GI50,[2],22 nM
"(2Z,3E)-5′-fluoro-3-((2-(pyrrolidin-1-yl)ethoximino)-[2,3′-biindolinylidene]-2′-one hydrochloride [Compound 36]",IC50,[1]; Table 2,267 nM
same,GI50,[2],212 nM
same,GI50,[3],805 nM
"(2Z,3E)-34(2-(piperazin-1-yl)ethoxy)imino)-5′-(trifluoromethoxy)-[2,3′-biindolinylidene]-2′-one dihydrochloride [Compound 44]",IC50,[1]; Table 2,40.2 nM
same,GI50,[2],20 nM
